Results reported in patent US20100022559A1, “BISOXIMES AS FUNGICIDES” (BAYER CROPSCIENCE AG, priority 2006, published 2010).
One block for each compound: values may come before it.

Assay: logP determination by HPLC on a reversed-phase column (C 18), EEC Directive 79/831 Annex V.A8
Format: physicochemical
Experimental: The stated logP values were determined in accordance with EEC Directive 79/831 Annex V.A8 by HPLC (high performance liquid chromatography) on a reversed-phase column (C 18). Temperature: 43° C.

[1] = method marker [a] (footnote not shown), isomer A / isomer B / isomer mixture as noted in the cell
[2] = [b] LC-MS, acidic range, pH 2.7, 0.1% aqueous formic acid and acetonitrile
[3] = method marker [b], isomer A / isomer B / isomer mixture as noted in the cell

logP (value marked [b]): 1.96^[b] | logP (value marked [c]): 3.70^[c]
SMILES: CC(=NOCC1(CON=C(C)c2ccc(C)c(C)n2)COC(=O)N1)c1ccc(C)c(C)n1 (centres unmarked) [compound 857]

logP (value marked [a]): 4.50^[a]
SMILES: C=C(CON=C(C#N)c1cc(C)cc(C)n1)CON=C(C#N)c1cc(C)cc(C)n1 [compound 830]

logP (value marked [a]): 4.96^[a]
SMILES: CC(=NOC1CCCC(ON=C(C)c2cccc(C)n2)C1)c1cccc(C)n1 (mixture of isomers) [compound 801]

logP (value marked [a]): 4.87^[a] (isomer B)
SMILES: C=C(CON=C(c1cccc(C)n1)C(C)C)CON=C(c1cccc(C)n1)C(C)C (single isomer, unassigned) [compound 274]

logP (value marked [b]): 6.48^[b]
SMILES: CCc1nc(C(C)=NOCC(C)CON=C(C)c2ccc(C)c(CC)n2)ccc1C (centres unmarked) [Compound 310]

logP [1]: 6.26^[a]
SMILES: CCCC(=NOCCCCON=C(CCC)c1cccc(C)n1)c1cccc(C)n1 [compound 227]

logP (value marked [b]): 5.36^[b]
SMILES: CC(=NOCC(C)CON=C(C)c1cccc2ccccc12)c1cccc(C)n1 (centres unmarked) [compound 437]

logP (method marked [b] in Table 1): 3.76^[b]
SMILES: N/C(=N\OCc1ccc(CO/N=C(\N)c2nc(C3CC3)cc(C3CC3)n2)cc1)c1nc(C2CC2)cc(C2CC2)n1 [compound 720]

logP (value marked [b]): 3.37^[b]
SMILES: CC(=NOCC(C)CON=C(C)c1ncccc1C)c1cccc(C)n1 (centres unmarked) [compound 503]

logP (method marked [b] in Table 1): 3.87^[b] | logP (method marked [c] in Table 1): 7.36^[c]
SMILES: CC(=NOCC1(CON=C(C)c2cc(C)cc(C)n2)CCCCC1)c1cc(C)cc(C)n1 [Compound 553]

logP (value marked [b]): 6.16^[b]
SMILES: CC(=NOCC(C)(C)CON=C(C)c1cccc(C)n1)c1cccc(C(F)(F)F)c1 [compound 410]

logP (value marked [b]): 1.99^[b] | logP (value marked [c]): 2.97^[c]
SMILES: CC(=NOCC1(CON=C(C)c2cccc(C)n2)COC(=O)N1)c1cccc(C)n1 (centres unmarked) [compound 856]

logP (value marked [a]): 4.9^[a]
SMILES: C=C(CON=C(SCCC)c1cccc(C)n1)CON=C(SCCC)c1cccc(C)n1 [compound 819]

logP ([a] acidic range, pH 2.3, 0.1% aqueous phosphoric acid and acetonitrile): 0.37^[a] | logP [2]: 0.37^[b] | logP ([c] LC-MS, neutral range, pH 7.8, 0.001 molar aqueous ammonium bicarbonate solution and acetonitrile): 2.49^[c]
SMILES: C/C(=N\OCC(C)CON)c1ccc(C)c(C)n1 (racemic) [XII-7]

logP (value marked [b]): 5.90^[b] (isomer B)
SMILES: CC(=NOCCCCCCON=C(Cc1ccccc1)c1ncccc1C)c1cccc(C)n1 [compound 339]

logP (value marked [b]): 4.25^[b]
SMILES: CC(=NOCCCCCCON=C(C)c1ncccc1C)c1cccc(C)n1 [compound 464]

logP [1]: 3.35^[a] | logP (method marker [c] (footnote not shown)): 4.47^[c]
SMILES: CC(=NOCCCON=C(C)c1nc(C)cs1)c1cccc(C)n1 (mixture of isomers) [Compound 16]

logP (method marked [a] in Table 1): 2.10^[a]
SMILES: CC(=NOCC(C)(C)CON=C(C)c1nc2ccccc2[nH]1)c1nc2ccccc2[nH]1 [Compound 573]

logP [3]: 1.92^[b] (isomer A)
SMILES: C=C(CON=C(C)c1ccc(C)nc1)CON=C(C)c1cccc(C)n1 (single isomer, unassigned) [compound 200]

logP [3]: 4.46^[b]
SMILES: CC(=NOCON=C(C)c1nc(C)c(C)s1)c1nc(C)c(C)s1 [compound 126]

logP [1]: 5.83^[a]
SMILES: CCCC(=NOCCCON=C(CCC)c1cccc(C)n1)c1cccc(C)n1 [Compound 91]

logP (value marked [b]): 3.04^[b] | logP (value marked [c]): 5.14^[c]
SMILES: CC(=NOCC1(CON=C(C)c2nc(C)ccc2C)CCCC1)c1nc(C)ccc1C (single isomer, unassigned) [compound 762]

logP [3]: 4.08^[b]
SMILES: C=C(CON=C(C)c1ccc(Br)nc1)CON=C(C)c1cccc(C)n1 [compound 208]

logP [3]: 5.82^[b]
SMILES: C=C(CON=C(C)c1ncc(C(F)(F)F)cc1Cl)CON=C(C)c1ncc(C(F)(F)F)cc1Cl [compound 149]

logP (method marked [b] in Table 1): 5.06^[b]
SMILES: CCC(CC)(C(=O)ON=C(C)c1ccc(C)c(C)n1)C(=O)ON=C(C)c1ccc(C)c(C)n1 [compound 675]

logP (value marked [b]): 2.42^[b]
SMILES: CC(=NOC[C@@H]1O[C@@H]1CON=C(C)c1cccc(C)n1)c1cccc(C)n1 [compound 287]

logP (value marked [a]): 3.52^[a] | logP (value marked [b]): 3.52^[b]
SMILES: CC(=NOCC(C)CON=C(C)c1csc(C)n1)c1csc(C)n1 (centres unmarked) [compound 517]

logP (method marked [b] in Table 1): 7.36^[b] | logP (method marked [c] in Table 1): 7.36^[c]
SMILES: CC(=NOCC(C)CON=C(C)c1ccc2cccc(C)c2n1)c1ccc2cccc(C)c2n1 (centres unmarked) [compound 687]

logP (method marked [b] in Table 1): 4.38^[b] | logP (method marked [c] in Table 1): 5.97^[c]
SMILES: CCC(CON=C(C)c1cccc(C)n1)CON=C(C)c1cccc(C)n1 (centres unmarked) [Compound 677]

logP (method marked [b] in Table 1): 4.04^[b]
SMILES: CCC1=NOC(CON=C(CC)c2ccc(C)cn2)(CON=C(CC)c2cccc(C)n2)C1 (racemic) [compound 607]

logP [3]: 2.82^[b]
SMILES: C=C(CON=C(C)c1ccc(C)c(C)n1)CON=C(C)c1ccc(C)c(C)n1 [Compound 67]

logP [1]: 6.33^[a]
SMILES: CC(=NOCC(C)CON=C(C)c1cc(-c2ccccc2)ccn1)c1cc(-c2ccccc2)ccn1 (centres unmarked) [Compound 119]

logP (method marked [b] in Table 1): 4.43^[b]
SMILES: CC(=NOCCC(C)CCON=C(C)c1ccccn1)c1ccccn1 (centres unmarked) [compound 747]

logP (value marked [b]): 5.84^[b]
SMILES: CC(=NOCCCCON=C(C)c1cccc(Cc2ccccc2)n1)c1cccc(C)n1 [compound 324]

logP (value marked [b]): 4.62^[b]
SMILES: CC(=NOCCCCON=C(C)c1nc(C)c(C)s1)c1cccc(C)n1 [compound 377]

logP (method marked [b] in Table 1): 6.24^[b] | logP (method marked [c] in Table 1): 3.26^[c]
SMILES: CC(=NOCC(C)CON=C(C)c1cccc(-c2cccc(C)n2)n1)c1cccc(-c2cccc(C)n2)n1 (centres unmarked) [compound 551]

logP (method marked [b] in Table 1): 3.58^[b] (isomer B)
SMILES: C=C(CON=C(C)c1cccc(C)n1)CON=C(C)c1sc(C)nc1C (single isomer, unassigned) [compound 545]

logP (value marked [b]): 2.16^[b]
SMILES: Cc1cccc(C=NOCCCCON=Cc2cccc(C)n2)n1 [compound 776]

logP (value marked [b]): 2.89^[b]
SMILES: CC(=NOC/C=C/CON=C(C)c1cccc(C)n1)c1cccc(C)n1 [Compound 777]

logP (method marked [b] in Table 1): 3.46^[b]
SMILES: CC(C)=CC1=NOC(CO/N=C(\C)c2ccc(C)c(C)n2)(CO/N=C(\C)c2ccc(C)c(C)n2)C1 [compound 636]

logP (value marked [b]): 3.28^[b]
SMILES: CC(=NOCC(C)CON=C(C)c1cccc(C)n1)c1cnccn1 (centres unmarked) [compound 507]

logP (value marked [a]): 7.36^[a]
SMILES: CC(=NOC1CCC(ON=C(C)c2cccc(C3CC3)n2)C1)c1cccc(C2CC2)n1 (mixture of isomers) [compound 813]

logP (method marked [b] in Table 1): 4.49^[b]
SMILES: CCC(CC)(C(=O)ON=C(C)c1cccc(C)n1)C(=O)ON=C(C)c1cccc(C)n1 [compound 745]

logP [3]: 2.45^[b]
SMILES: CC(=NOCC1(CON=C(C)c2cccc(C)n2)COC1)c1cccc(C)n1 [compound 19]

logP (value marked [b]): 2.18^[b]
SMILES: CC(=NOCCCCON=C(C)c1cccc(C)n1)c1cccnc1 [compound 384]

logP [3]: 2.45^[b]
SMILES: N/C(=N\OCCCCO/N=C(\N)c1ncc(F)cc1F)c1ncc(F)cc1F [compound 38]

logP (value marked [b]): 5.73^[b] | logP (value marked [c]): 6.47^[c]
SMILES: CCC(C)(CON=C(C)c1cccc(C)n1)CON=C(C)c1cccc(C)n1 (centres unmarked) [Compound 788]

logP [3]: 3.64^[b]
SMILES: C=C(CON=C(C)c1ncccc1Cl)CON=C(C)c1ncccc1Cl [compound 144]

logP (method marked [b] in Table 1): 4.67^[b]
SMILES: CC(=NOCC1(CON=C(C)c2cccc(C)n2)CC(c2ccc(Cl)cc2)=NO1)c1cccc(C)n1 (centres unmarked) [compound 601]

logP (method marked [b] in Table 1): 5.65^[b]
SMILES: CC#Cc1cccc(C(C)=NOCC(C)CON=C(C)c2cccc(C#CC)n2)n1 (centres unmarked) [Compound 686]

logP (value marked [b]): 5.14^[b]
SMILES: CCCC(CON=C(C)c1cccc(C)n1)CON=C(C)c1cccc(C)n1 (centres unmarked) [Compound 270]

logP (value marked [b]): 2.66^[b]
SMILES: CC(=NOCCCCON=C(C)c1cccc(C)n1)c1cc(C)ccn1 [Compound 373]

logP (value marked [b]): 2.58^[b]
SMILES: CC(=NOCC(C)CON=C(C)c1cc(C)c(C)nn1)c1cc(C)c(C)nn1 (centres unmarked) [compound 309]

logP (value marked [a]): 4.20^[a]
SMILES: Cc1cccc(C(C#N)=NOCC(C)CON=C(C#N)c2cccc(C)n2)n1 (centres unmarked) [compound 827]

logP (method marked [b] in Table 1): 1.88^[b]
SMILES: CCC1=NOC(CON=C(C)c2cc(C)cc(C)n2)(CON=C(C)c2cc(C)cc(C)n2)C1 (centres unmarked) [Compound 639]

logP (value marked [b]): 4.86^[b]
SMILES: CC(=NOCC(C)CON=C(C)c1nc(C)cc(C(F)(F)F)n1)c1nc(C)cc(C(F)(F)F)n1 (centres unmarked) [compound 273]

logP [3]: 4.95^[b] (isomer B)
SMILES: C=C(CON=C(C)c1cccc(C)n1)CON=C(C)c1ncc(C(F)(F)F)cc1Cl (single isomer, unassigned) [compound 135]

logP (value marked [b]): 5.21^[b] | logP (value marked [c]): 5.58^[c]
SMILES: COc1ccc(C(C)=NOCC(C)CON=C(C)c2ccc(OC)c(C)n2)nc1C (centres unmarked) [Compound 825]

logP (value marked [b]): 5.84^[b]
SMILES: CC(=NOCC(C)(C)CON=C(C)c1ccc(Cl)s1)c1cccc(C)n1 [Compound 486]

logP [1]: 2.98^[a]
SMILES: CCc1ccnc(C(C)=NOCCCON=C(C)c2cc(CC)ccn2)c1 [Compound 136]

logP (value marked [a]): 3.81^[a]
SMILES: CC(=NOCC(C)(C)CON=C(C)c1ccc(C)c(C)n1)c1ccc(C)c(C)n1 [Compound 278]

logP (value marked [a]): 6.52^[a] | logP (value marked [b]): 6.52^[b] | logP (value marked [c]): 7.36^[c]
SMILES: CC(=NOCC(C)CON=C(C)c1ccc(C)c(C)n1)c1cc(Cl)cc(C)n1 (centres unmarked) [compound 876]

logP (value marked [b]): 2.04^[b]
SMILES: CC(=NOCC(C)CON=C(C)c1cccc(C)n1)c1ccncc1 (centres unmarked) [compound 493]

logP (value marked [b]): 6.79^[b]
SMILES: CCCc1cccc(C(C)=NOCCCCCCON=C(C)c2cccc(C)n2)n1 [compound 463]

logP (value marked [b]): 1.46^[b]
SMILES: CC(=NOCC(O)CON=C(C)c1cccc(C)n1)c1cccc(C)n1 (centres unmarked) [compound 293]

logP [3]: 3.00^[b]
SMILES: C=C(CON=C(C)c1cccc(C)n1)CON=C(N)c1ncc(Cl)cc1Cl [compound 246]

logP [2]: 1.11^[b]
SMILES: C/C(=N\OCC(C)(C)CON)c1cccc(C)n1 [XII-4]

logP (value marked [a]): 7.25^[a]
SMILES: CCCC(=NOCC(C)(C)CON=C(CCC)c1cccc(C)n1)c1cccc(C)n1 [Compound 279]

logP [1]: 1.65^[a]
SMILES: CC(=NOCCCON=C(C)c1cc(C)cc(C)n1)c1cc(C)cc(C)n1 [Compound 224]

logP [3]: 2.67^[b]
SMILES: C=C(CO/N=C(\N)c1nc(C)c2c(n1)CCCC2)CO/N=C(\N)c1nc(C)c2c(n1)CCCC2 [compound 43]

logP (method marked [b] in Table 1): 2.61^[b]
SMILES: CCC(CON=C(C)c1cc(C)cc(C)n1)CON=C(C)c1cc(C)cc(C)n1 (centres unmarked) [Compound 679]
